# Patent US6150367A, “1-[4-arylpiperazin-1-yl]-3-[2-oxopyrrolidin/piperidin-1-yl]propanes and their use in medical treatments” (Council of Scientific & Industrial Research, priority 1997, dated 2000)
# Key:
# [1] = system: Langendorff perfused rat heart; assay: Compound at reperfusion after brief (16 min.) ischemic insult (Table 3); conditions: 0.001 ug/ml at reperfusion
# [2] = system: Langendorff perfused rat heart; assay: Langendorff perfused rat heart, prolonged global ischemia, compound given at reperfusion (Table 1)
# Method: Further, in Langendorff perfused rat heart preparation subjected to even upto […]. global ischemia, the compound at 0.001 ug/ml conc. given at the time of reperfusion revived normal rhythmic contraction started within […]. (Table 1) and incidence of reperfusion induced arrhythmia were abolished.
# anaesthetized cat = assay: Effect on blood pressure and adrenaline vasopressure response in anaesthetized cat, i.v. (Table 2); assay type: in vivo; conditions: for inhibition at 2 µmol/kg / inhibition at 10 µmol/kg: Felis catus, iv
# Method: (§1) (a) Cats (2.6-4.0 kg) of either sex anaesthetized with pentobarbitone sodium (40 mg/kg i.v.) and showing basal mean arterial blood plessure below 150 mm (Hg) were categorised as normotensive and ahove 150 mm Hg as hypertensive. Arterial blood pressure (EP) was recorded from one of the carotid artery through a stathum P23 DC pressure transducer and 7P1 low level DC preamplifier on a Grass Model P7 Polygraph, Signals from 7P1 preamplifier were used to trigger 7P4 Tachograph preamplifier for recording the heart rate (HR). Right femoral vein and Trachea were cannulated for intravenous injections and artificial ventilation respectively. Control responses to intravenous injection of noradrenaline (2-4 ug); acetyl choline (1-2 ug); histamine (1-2 ug) and isoprenaline (1-2 ug) were taken before and after the administration of test doses of each compounds.
# [3] = system: Naturally occurring hypertensive cat; assay: Effect on blood pressure, heart rate and adrenaline vasopressor response, anaesthetized naturally occurring hypertensive cat; assay type: in vivo
# Method: (§2) 2. Effect on blood pressure, heart rate and adrenaline vasopressor response of anaesthetized (pentobarbitone sodium 40 & 60 mg/kg i.p. in cat and rat respectively) normotensive & hypertensive rat & cat model preparations.
# as §1
# Normotensive cat = assay: Effect on blood pressure, heart rate and adrenaline vasopressor response, anaesthetized normotensive cat; assay type: in vivo
# Method: as §2, §1
# [4] = system: Hypertensive rat model preparation; assay: Effect on blood pressure, heart rate and adrenaline vasopressor response, hypertensive rat model preparation; assay type: in vivo
# Method: as §2
# Spinal transected cat = assay: Site of action: spinal transected cat; assay type: in vivo; conditions: dose 2-10 umol/kg i.d.
# Site of action: ICV = assay type: in vivo; conditions: dose 0.34-1.36
# Isolated aortic strip = assay: Isolated aortic strip, endothelin induced contraction
# Excerpt: (i) Isolated aortic strip:
# [5] = system: Isolated Guinea pig ileum; assay: Isolated Guinea pig ileum preparation, antihistaminic activity; conditions: 0.5-5.0 ug/ml
# [6] = system: histamine induced bronchoconstriction; assay: Konzett and Rossler preparation, histamine induced bronchoconstriction; conditions: in vivo
# Excerpt: (iv) Konzett and Rossler preparation:
# Rat aortic ring = Rat aortic ring preparation, NE induced contraction
# Excerpt: (v) Rat aortic ring preparation:
# cat [7] = assay: In vivo drug antagonism studies at 2 uMol dose i.v. in cat; conditions: 2 uMol i.v.
# Excerpt: (B) In viva Drug antagonism studies at 2 uMol dose i.v. in cat: […]
# cat [8] = assay: Comparative antihypertensive effect with clinically used antihypertensive drugs at 2 uMol/kg i.v. in cat; assay type: in vivo
# Excerpt: (4) Comparative antihypertensive effect with clinically used antihypertensive drugs at 2 uMol/kg i.v. dose in cat
# [9] = Cardioprotective effect against myocardial stunning; conditions: in vivo
# [10] = 10^-6 M, ischemic insult 45 min
# [11] = 0.001 ug/ml at reperfusion, 90 min. ischemic insult
smiles,measurement,setting,value
"CCc1ccccc1N1CCN(CCCN2CCCC2=O)CC1 [Example 7, 1-[4-(2-ethylphenyl)piperazin-1-Yl]-3-[2-oxopyrrolidin-1-yl]propane]",Percentage recovery 15 min.,[1],106.06%
same,Percentage recovery 30 min.,[1],136.36%
"COC(=O)C1=C(C)NC(C)=C(C(=O)OC)C1c1ccccc1[N+](=O)[O-] [Nifedipine, reference compound]",Percentage recovery 15 min.,[2]; [10],0.66%
same,Percentage recovery 30 min.,[2]; [10],0.0%
"O=C1CCCCN1CCCN1CCN(c2cccc(C(F)(F)F)c2)CC1 [Example 14, 1-[4-(3-trifluoromethylphenyl)piperazin-1-yl]-3-[2-oxopiperidin-1-yl]propane]",Dur. (min.),anaesthetized cat; 10.0 umol/kg i.v.,Tr
"COc1ccccc1N1CCN(CCCN2CCCC2=O)CC1 [C6 H4-2-OCH3, n=1]",Dur.,anaesthetized cat; 2.0 umol/kg i.v.,19 min
same,Dur.,anaesthetized cat; 10.0 umol/kg i.v.,67 min
same,inhibition at 2 µmol/kg,anaesthetized cat; 2.0 umol/kg i.v.,47%
same,inhibition at 10 µmol/kg,anaesthetized cat; 10.0 umol/kg i.v.,> 100%
same,Onset,[1],2.0 min
same,Percentage recovery 15 min.,[1],45.40%
same,Percentage recovery 30 min.,[1],59.09%
"O=C1CCCN1CCCN1CCN(c2ccc(F)cc2)CC1 [Example 5, 1-[4-(4-fluorophenyl)piperazin-1-yl]-3-[2-oxopyrrolidin-1-yl]propane]",B.P. Fall (%),[3]; 10 uMol/kg i.d.,16%
same,B.P. fall Dur.,[3]; 10 uMol/kg i.d.,110 min
same,B.P. Fall (%),[3]; 20 uMol/kg i.d.,22%
same,B.P. fall Dur.,[3]; 20 uMol/kg i.d.,> 156.75 min
same,B.P. Fall (%),Normotensive cat; 10 uMol/kg i.d.,22%
same,B.P. fall Dur.,Normotensive cat; 10 uMol/kg i.d.,85 min
same,B.P. Fall (%),Normotensive cat; 20 uMol/kg i.d.,21%
same,B.P. fall Dur.,Normotensive cat; 20 uMol/kg i.d.,> 102.5 min
same,B.P. Fall (%),[4]; 5 uMol/kg i.d.,27%
same,B.P. fall Dur.,[4]; 5 uMol/kg i.d.,51 min
same,Heart rate Pre treatment,[4]; 5 uMol/kg i.d.,350 beats/min
same,Heart rate post treatment,[4]; 5 uMol/kg i.d.,370 beats/min
same,B.P. Fall (%),[4]; 10 uMol/kg i.d.,22%
same,B.P. fall Dur.,[4]; 10 uMol/kg i.d.,76 min
same,B.P. Fall (%),[4]; 20 uMol/kg i.d.,29%
same,B.P. fall Dur.,[4]; 20 uMol/kg i.d.,100 min
same,B.P. Fall (%),Spinal transected cat,14-18%
same,B.P. fall Dur.,Spinal transected cat,15 to 30 min
same,B.P. Fall (%),Site of action: ICV,8-10%
same,B.P. fall Dur.,Site of action: ICV,10 to 15 min
same,Endothelin induced contraction,Isolated aortic strip,inhibited significantly
same,Response to endothelin after washing the preparation,Isolated aortic strip; after washing,relaxation rather than contraction
same,antihistaminic activity,[5],significant antihistaminic activity
same,antihistaminic activity against histamine induced bronchoconstriction,[6],some antihistaminic activity
same,NE induced contraction,Rat aortic ring,inhibited
same,reduction of the fall in pressure,cat [7]; pretreatment with KATP blocker glibenclamide,only partially reduced
same,alteration of antihypertensive effect,"cat [7]; pretreatment with atropine sulphate, mepyramine maleate, propranolol or yohimbine",failed to alter
same,Dur.,cat [8],25 min
same,cardioprotective effect against myocardial stunning,[9],cardioprotective effect against myocardial stunning at a much smaller dose than antihypertensive dose
same,Percentage recovery 15 min.,[2]; [11],81.25%
same,Percentage recovery 30 min.,[2]; [11],87.15%
same,incidence of reperfusion induced arrhythmia,"[2]; 0.001 ug/ml at reperfusion, up to 90 min global ischemia",abolished
same,Percentage recovery 15 min.,[1],81.25%
same,Percentage recovery 30 min.,[1],78.12%
"CCc1ccc(N2CCN(CCCN3CCCC3=O)CC2)cc1 [Example 6, 1-[4-(4-ethylphenyl)piperazin-1-yl]-3-[2-oxopyrrolidin-1-yl]propane]",Percentage recovery 15 min.,[1],103.03%
same,Percentage recovery 30 min.,[1],60.60%
"O=C1CCCN1CCCN1CCN(c2ccc(Cl)cc2)CC1 [Example 3, 1-[4-(4-chlorophenyl)piperazin-1-yl]-3-[2-oxopyrrolidin-1-yl]propane]",Percentage recovery 15 min.,[1],87.50%
same,Percentage recovery 30 min.,[1],120.80%
"O=C1CCCN1CCCN1CCN(c2cccc(Cl)c2)CC1 [Example 2, 1-[4-(3-chlorophenyl)piperazin-1-yl]-3-[2-oxopyrrolidin-1-yl]propane]",Percentage recovery 15 min.,"[1]; listed as C6 H4 -3-C1, n=1",50.00%
same,Percentage recovery 30 min.,"[1]; listed as C6 H4 -3-C1, n=1",88.80%
same,Onset,"[1]; listed as C6 H4 -3-Cl, n=1",3.0 min
same,Percentage recovery 15 min.,"[1]; listed as C6 H4 -3-Cl, n=1",31.50%
same,Percentage recovery 30 min.,"[1]; listed as C6 H4 -3-Cl, n=1",39.40%
"O=C1CCCN1CCCN1CCN(c2cccc(F)c2)CC1 [Example 4, 1-[4-(3-fluorophenyl)piperazin-1-yl)-3-[2-oxopyrrolidin-1-yl]propane]",Percentage recovery 15 min.,[1],120.00%
same,Percentage recovery 30 min.,[1],180.00%
"O=C1CCCN1CCCN1CCN(c2ccccn2)CC1 [2-Pyridyl, n=1]",Dur.,anaesthetized cat; 2.0 umol/kg i.v.,16 min
same,Dur.,anaesthetized cat; 10.0 umol/kg i.v.,43 min
same,inhibition at 2 µmol/kg,anaesthetized cat; 2.0 umol/kg i.v.,40%
same,inhibition at 10 µmol/kg,anaesthetized cat; 10.0 umol/kg i.v.,-20 to 0%
same,Onset,[1],2.0 min
same,Percentage recovery 15 min.,[1],47.60%
same,Percentage recovery 30 min.,[1],71.40%
